Assay results: patent US20100222309A1, “SKIN PROPERTY-IMPROVING THERAPEUTIC AGENT COMPRISING A MORPHINAN DERIVATIVE OR ANY OF ITS PHARMACOLOGICALLY PERMISSIBLE ACID ADDITION SALTS AS AN ACTIVE INGREDIENT” (TORAY INDUSTRIES, INC., priority 2007, published 2010)

Tested on: itch patients treated with hemodialysis
Experiment: Oral administration of compound 1 soft capsules to itch patients treated with hemodialysis; skin properties and itching observed
[1] = one of the patients, after end of administration

In the case of `CN(C(=O)/C=C/c1ccoc1)[C@@H]1CC[C@@]2(O)[C@H]3Cc4ccc(O)c5c4[C@@]2(CCN3CC2CC2)[C@H]1O5.Cl` [compound 1], the itching [1] is reported as “began to feel itching again”, the skin moisture [1] is reported as “began to have dry skin” and the itching (patient, two capsules (5.0 μg) oral, after start of administration) is reported as “began to feel less itching”.
